Values quoted from earlier work, collected in US20030166007A1, “Chemical proteomics” (MDS Proteomics Inc., priority 2002, published 2003).

Legend:
[1] = target: T1, muscle glycogen phosphorylase b (Homo sapiens, UniProt P11217); details: cited from earlier work
T1 sequence (P11217 1-842): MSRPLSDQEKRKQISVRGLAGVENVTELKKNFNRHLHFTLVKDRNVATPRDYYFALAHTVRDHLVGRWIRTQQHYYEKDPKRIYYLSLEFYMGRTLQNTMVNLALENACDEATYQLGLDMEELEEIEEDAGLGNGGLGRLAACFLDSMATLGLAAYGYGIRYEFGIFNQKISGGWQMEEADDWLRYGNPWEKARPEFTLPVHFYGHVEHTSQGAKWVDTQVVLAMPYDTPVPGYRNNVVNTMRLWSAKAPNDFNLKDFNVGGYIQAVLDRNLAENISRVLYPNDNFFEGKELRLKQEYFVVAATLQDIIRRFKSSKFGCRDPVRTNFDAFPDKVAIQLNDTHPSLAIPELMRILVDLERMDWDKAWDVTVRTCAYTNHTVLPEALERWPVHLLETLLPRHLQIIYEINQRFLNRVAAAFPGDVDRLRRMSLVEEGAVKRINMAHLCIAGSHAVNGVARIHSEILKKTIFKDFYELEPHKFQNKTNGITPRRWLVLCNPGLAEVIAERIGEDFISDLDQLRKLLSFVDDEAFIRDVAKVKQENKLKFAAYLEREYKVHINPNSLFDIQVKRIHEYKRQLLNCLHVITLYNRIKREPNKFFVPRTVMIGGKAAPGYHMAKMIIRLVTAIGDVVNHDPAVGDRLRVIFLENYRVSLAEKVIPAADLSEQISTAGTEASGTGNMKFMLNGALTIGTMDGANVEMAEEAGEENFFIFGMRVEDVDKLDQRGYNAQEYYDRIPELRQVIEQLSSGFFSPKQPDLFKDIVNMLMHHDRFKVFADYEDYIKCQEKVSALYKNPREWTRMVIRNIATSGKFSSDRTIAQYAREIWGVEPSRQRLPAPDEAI

[2] = target: Amido phosphoribosyltransferase (Homo sapiens, UniProt Q06203); details: in vitro assays; cited from earlier work
Sequence of Amido phosphoribosyltransferase (Q06203 12-517, species assumed): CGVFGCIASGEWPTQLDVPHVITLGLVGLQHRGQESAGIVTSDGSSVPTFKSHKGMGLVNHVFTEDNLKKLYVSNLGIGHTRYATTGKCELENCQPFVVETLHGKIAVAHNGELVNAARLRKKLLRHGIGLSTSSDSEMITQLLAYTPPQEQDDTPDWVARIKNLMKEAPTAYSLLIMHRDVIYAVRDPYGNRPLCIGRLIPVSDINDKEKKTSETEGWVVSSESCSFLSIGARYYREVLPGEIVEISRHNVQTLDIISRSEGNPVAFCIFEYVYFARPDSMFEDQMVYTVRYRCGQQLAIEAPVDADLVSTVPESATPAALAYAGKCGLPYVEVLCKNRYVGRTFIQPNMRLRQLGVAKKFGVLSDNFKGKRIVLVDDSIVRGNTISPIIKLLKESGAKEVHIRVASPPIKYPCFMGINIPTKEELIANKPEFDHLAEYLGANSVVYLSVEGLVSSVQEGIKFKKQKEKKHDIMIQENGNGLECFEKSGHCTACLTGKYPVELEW

Compound	inhibition of muscle glycogen phosphorylase b [1]	inhibition of amido-phosphoribosyltransferase [2]
CN(Cc1cnc2nc(N)nc(N)c2n1)c1c(Cl)cc(C(=O)N[C@@H](CCC(=O)O)C(=O)O)cc1Cl [3′,5′-dichloroMethotrexate]	reversible inhibitors	–
CN(Cc1cnc2nc(N)nc(N)c2n1)c1ccc(C(=O)NC(CCC(=O)O)C(=O)O)cc1Cl (stereo not drawn) [3′-chloroMethotrexate]	reversible inhibitors	–
CN(Cc1cnc2nc(N)nc(N)c2n1)c1ccc(C(=O)N[C@@H](CCC(=O)N[C@@H](CCC(=O)N[C@@H](CCC(=O)N[C@@H](CCC(=O)N[C@@H](CCC(=O)O)C(=O)O)C(=O)O)C(=O)O)C(=O)O)C(=O)O)cc1 [MTX-Glu5]	–	inhibited
